This note sets out measurements from patent publication US20250059171A1 (Hoffmann-La Roche Inc., priority 2021, published 2025).

The structures appear in SMILES notation. Like-named read-outs stand apart in the source and are kept apart here.

One experiment has as its target HCoV-229E 3CLpro (Human coronavirus 229E, UniProt P0C6X1). The experiment can be described thus: HCoV-229E 3CLpro inhibition assay (FRET). It is filed as biochemical.
The next experiment has as its target SARS-CoV 3CLpro (Severe acute respiratory syndrome coronavirus, UniProt P0C6X7). As to the kind of experiment: biochemical.
In another experiment the target is SARS-CoV-2 3CLpro (Severe acute respiratory syndrome coronavirus 2, UniProt P0DTD1). The experiment can be described thus: biochemical.
Another experiment addresses MERS-CoV 3CLpro (Middle East respiratory syndrome-related coronavirus, UniProt K9N7C7). The experiment can be described thus: biochemical.

Sequence of MERS-CoV 3CLpro (K9N7C7 3248-3553): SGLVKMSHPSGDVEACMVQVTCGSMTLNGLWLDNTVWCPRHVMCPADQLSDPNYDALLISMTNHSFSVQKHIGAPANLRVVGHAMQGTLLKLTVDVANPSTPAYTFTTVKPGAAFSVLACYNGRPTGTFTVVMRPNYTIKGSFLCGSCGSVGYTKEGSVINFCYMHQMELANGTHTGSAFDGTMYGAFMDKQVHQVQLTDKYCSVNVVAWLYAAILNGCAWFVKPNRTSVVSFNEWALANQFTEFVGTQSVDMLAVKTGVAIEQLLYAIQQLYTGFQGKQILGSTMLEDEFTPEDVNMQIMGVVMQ
Sequence of HCoV-229E 3CLpro (P0C6X1 2966-3267): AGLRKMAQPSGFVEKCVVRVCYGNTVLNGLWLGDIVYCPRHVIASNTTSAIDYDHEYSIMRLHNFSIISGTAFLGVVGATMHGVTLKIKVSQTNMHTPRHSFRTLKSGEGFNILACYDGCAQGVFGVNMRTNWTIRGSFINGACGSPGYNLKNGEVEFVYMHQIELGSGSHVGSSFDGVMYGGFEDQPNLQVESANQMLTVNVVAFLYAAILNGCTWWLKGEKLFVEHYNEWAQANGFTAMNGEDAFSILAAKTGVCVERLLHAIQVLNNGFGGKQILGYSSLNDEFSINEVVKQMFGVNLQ

With `CC(C)(C)[C@H](NC(=O)C(F)(F)F)C(=O)N1C[C@H]2[C@@H]([C@H]1C(=O)NN(C[C@@H]1CCCNC1=O)C(=O)[C@H](F)Cl)C2(C)C` (single isomer, unassigned) [Example 163b], the IC50 at HCoV-229E 3CLpro was 104 nM; at SARS-CoV 3CLpro, 33 nM; on SARS-CoV-2 3CLpro, 17 nM; at MERS-CoV 3CLpro, 469 nM.

On to `CC[C@H](C)[C@H](NC(=O)C(F)(F)F)C(=O)N1C[C@H]2[C@@H]([C@H]1C(=O)NN(C[C@@H]1CCCNC1=O)C(=O)[C@H](F)Cl)C2(C)C` (single isomer, unassigned) [Example 165a], for which the 50% inhibitory concentration (IC50) amounted to 38 nM against HCoV-229E 3CLpro, 12 nM on SARS-CoV 3CLpro, 11 nM against SARS-CoV-2 3CLpro and 185 nM against MERS-CoV 3CLpro.

On to `CC[C@H](C)[C@H](NC(=O)C(F)(F)F)C(=O)N1C[C@H]2[C@@H]([C@H]1C(=O)NN(C[C@H]1CCCNC1=O)C(=O)[C@H](F)Cl)C2(C)C` (single isomer, unassigned) [Example 165b], for which the concentration for half-maximal inhibition (IC50) came out at 57 nM against HCoV-229E 3CLpro, 36 nM at SARS-CoV 3CLpro, 20 nM against SARS-CoV-2 3CLpro and 291 nM at MERS-CoV 3CLpro.

On to `CCC(C)[C@H](NC(=O)C1(F)CCC1)C(=O)N1C[C@@H]2CCC[C@@H]2[C@H]1C(=O)NN(C[C@@H]1CCNC1=O)C(=O)[C@H](F)Cl` (stereo in doubt) [Example 125, N-[(1S,2S)-1-[(3S,3aS,6aR)-3-[[[(2R)-2-chloro-2-fluoro-acetyl]-[[(3S)-2-oxopyrrolidin-3-yl]methyl]amino]carbamoyl]-3,3a,4,5,6,6a-hexahydro-1H-cyclopenta[c]pyrrole-2-carbonyl]-2-methyl-butyl]-1-fluoro-cyclobutanecarboxamide], for which the 50% inhibitory concentration (IC50) at HCoV-229E 3CLpro came to 42 nM; against SARS-CoV 3CLpro it was 12 nM; against SARS-CoV-2 3CLpro, 10 nM; on MERS-CoV 3CLpro it was 114 nM.

Turning to `CC(C)(C)[C@H](NC(=O)C(F)(F)F)C(=O)N1C[C@H]2[C@@H]([C@H]1C(=O)NN(C[C@@H]1CCNC1=O)C(=O)[C@H](F)Cl)C2(C)C` [Example 1, N-[(1S)-1-[(1R,2S,5S)-2-[[[(2R)-2-chloro-2-fluoro-acetyl]-[[(3S)-2-oxopyrrolidin-3-yl]methyl]amino]carbamoyl]-6,6-dimethyl-3-azabicyclo[3.1.0]hexane-3-carbonyl]-2,2-dimethyl-propyl]-2,2,2-trifluoro-acetamide], the IC50 on HCoV-229E 3CLpro was determined as 35 nM; against SARS-CoV 3CLpro, 15 nM; against SARS-CoV-2 3CLpro, 10 nM; against MERS-CoV 3CLpro, 115 nM.

In the case of `CC1(C)[C@@H]2[C@@H](C(=O)NN(C[C@@H]3CCNC3=O)C(=O)[C@H](F)Cl)N(C(=O)[C@@H](NC(=O)C(F)(F)F)C3CC3)C[C@@H]21` [Example 2, N-[(1S)-2-[(1R,2S,5S)-2-[[[(2R)-2-chloro-2-fluoro-acetyl]-[[(3S)-2-oxopyrrolidin-3-yl]methyl]amino]carbamoyl]-6,6-dimethyl-3-azabicyclo[3.1.0]hexan-3-yl]-1-cyclopropyl-2-oxo-ethyl]-2,2,2-trifluoro-acetamide], the IC50 on HCoV-229E 3CLpro was 41 nM; against SARS-CoV 3CLpro it was 30 nM; against SARS-CoV-2 3CLpro it was 19 nM; against MERS-CoV 3CLpro, 177 nM.

For `CC(C)C[C@H](NC(=O)C(F)(F)F)C(=O)N1C[C@H]2[C@@H]([C@H]1C(=O)NN(C[C@@H]1CCNC1=O)C(=O)[C@H](F)Cl)C2(C)C` [Example 3, N-[(1S)-1-[(1R,2S,5S)-2-[[[(2R)-2-chloro-2-fluoro-acetyl]-[[(3S)-2-oxopyrrolidin-3-yl]methyl]amino]carbamoyl]-6,6-dimethyl-3-azabicyclo[3.1.0]hexane-3-carbonyl]-3-methyl-butyl]-2,2,2-trifluoro-acetamide], the IC50 was determined as 38 nM on HCoV-229E 3CLpro, 20 nM on SARS-CoV 3CLpro, 14 nM against SARS-CoV-2 3CLpro and 174 nM against MERS-CoV 3CLpro.

As for `CC(C)(C)[C@H](NC(=O)C(F)(F)F)C(=O)N1C[C@@H]2CCC[C@@H]2[C@H]1C(=O)NN(C[C@@H]1CCNC1=O)C(=O)[C@H](F)Cl` [Example 4, N-[(1S)-1-[(3S,3aS,6aR)-3-[[[(2R)-2-chloro-2-fluoro-acetyl]-[[(3S)-2-oxopyrrolidin-3-yl]methyl]amino]carbamoyl]-3,3a,4,5,6,6a-hexahydro-1H-cyclopenta[c]pyrrole-2-carbonyl]-2,2-dimethyl-propyl]-2,2,2-trifluoro-acetamide], the concentration for half-maximal inhibition (IC50) on HCoV-229E 3CLpro was 39 nM; against SARS-CoV 3CLpro, 16 nM; at SARS-CoV-2 3CLpro (read-out: IC50 in SARS-CoV-2 3CLpro assay), 6 nM; against MERS-CoV 3CLpro, 70 nM.

As for `CC(C)(C)[C@H](NC(=O)C(F)(F)F)C(=O)N1C[C@@H]2CC[C@@H]2[C@H]1C(=O)NN(C[C@@H]1CCNC1=O)C(=O)[C@H](F)Cl` [Example 5, N-[(1S)-1-[(1S,2S,5R)-2-[[[(2R)-2-chloro-2-fluoro-acetyl]-[[(3S)-2-oxopyrrolidin-3-yl]methyl]amino]carbamoyl]-3-azabicyclo[3.2.0]heptane-3-carbonyl]-2,2-dimethyl-propyl]-2,2,2-trifluoro-acetamide], the concentration for half-maximal inhibition (IC50) against HCoV-229E 3CLpro was determined as 104 nM; against SARS-CoV 3CLpro, 19 nM; against SARS-CoV-2 3CLpro it was 10 nM; on MERS-CoV 3CLpro, 303 nM.

Take `C[C@@H]1C[C@@H](C(=O)NN(C[C@@H]2CCNC2=O)C(=O)[C@H](F)Cl)N(C(=O)[C@@H](NC(=O)C(F)(F)F)C(C)(C)C)C1` [Example 7, N-[(1S)-1-[(2S,4R)-2-[[[(2R)-2-chloro-2-fluoro-acetyl]-[[(3S)-2-oxopyrrolidin-3-yl]methyl]amino]carbamoyl]-4-methyl-pyrrolidine-1-carbonyl]-2,2-dimethyl-propyl]-2,2,2-trifluoro-acetamide]: the IC50 at HCoV-229E 3CLpro amounted to 193 nM; against SARS-CoV 3CLpro it was 17 nM; on SARS-CoV-2 3CLpro, 8 nM; against MERS-CoV 3CLpro, 379 nM.

`CC1(C)C[C@@H](C(=O)NN(C[C@@H]2CCNC2=O)C(=O)[C@H](F)Cl)N(C(=O)[C@@H](NC(=O)C(F)(F)F)C(C)(C)C)C1` [Example 8, N-[(1S)-1-[(2S)-2-[[[(2R)-2-chloro-2-fluoro-acetyl]-[[(3S)-2-oxopyrrolidin-3-yl]methyl]amino]carbamoyl]-4,4-dimethyl-pyrrolidine-1-carbonyl]-2,2-dimethyl-propyl]-2,2,2-trifluoro-acetamide]: the half-inhibitory concentration (IC50) worked out at 42 nM on HCoV-229E 3CLpro, 25 nM against SARS-CoV 3CLpro, 10 nM on SARS-CoV-2 3CLpro and 136 nM at MERS-CoV 3CLpro.

For the compound `CC(C)(C)[C@H](NC(=O)C(F)(F)F)C(=O)N1C[C@@H]2C[C@@H]2[C@H]1C(=O)NN(C[C@@H]1CCNC1=O)C(=O)[C@H](F)Cl` [Example 9, N-[(1S)-1-[(1S,2S,5R)-2-[[[(2R)-2-chloro-2-fluoro-acetyl]-[[(3S)-2-oxopyrrolidin-3-yl]methyl]amino]carbamoyl]-3-azabicyclo[3.1.0]hexane-3-carbonyl]-2,2-dimethyl-propyl]-2,2,2-trifluoro-acetamide], the IC50 at HCoV-229E 3CLpro amounted to 939 nM; against SARS-CoV 3CLpro, 38 nM; on SARS-CoV-2 3CLpro, 12 nM; against MERS-CoV 3CLpro, 2780 nM.

On to `CC(C)(C)[C@H](NC(=O)C(F)(F)F)C(=O)N1C[C@H]2[C@@H]([C@H]1C(=O)NN(Cc1cc[nH]n1)C(=O)[C@H](F)Cl)C2(C)C` [Example 10, N-[(1S)-1-[(1R,2S,5S)-2-[[[(2R)-2-chloro-2-fluoro-acetyl]-(1H-pyrazol-3-ylmethyl)amino]carbamoyl]-6,6-dimethyl-3-azabicyclo[3.1.0]hexane-3-carbonyl]-2,2-dimethyl-propyl]-2,2,2-trifluoro-acetamide], for which the half-maximal inhibitory concentration (IC50) on HCoV-229E 3CLpro is 1240 nM; at SARS-CoV 3CLpro it was 373 nM; on SARS-CoV-2 3CLpro, 21 nM; on MERS-CoV 3CLpro, 3040 nM.

Take `CC(C)(C)C(=O)N[C@H](C(=O)N1C[C@H]2[C@@H]([C@H]1C(=O)NN(C[C@@H]1CCNC1=O)C(=O)[C@H](F)Cl)C2(C)C)C(C)(C)C` [Example 11, N-[(1S)-1-[(1R,2S,5S)-2-[[[(2R)-2-chloro-2-fluoro-acetyl]-[[(3S)-2-oxopyrrolidin-3-yl]methyl]amino]carbamoyl]-6,6-dimethyl-3-azabicyclo[3.1.0]hexane-3-carbonyl]-2,2-dimethyl-propyl]-2,2-dimethyl-propanamide]: the IC50 on HCoV-229E 3CLpro worked out at 56 nM; against SARS-CoV 3CLpro, 34 nM; against SARS-CoV-2 3CLpro, 218 nM; at MERS-CoV 3CLpro it was 260 nM.

As for `CC(C)(C)[C@H](NC(=O)C1CC1)C(=O)N1C[C@H]2[C@@H]([C@H]1C(=O)NN(C[C@@H]1CCNC1=O)C(=O)[C@H](F)Cl)C2(C)C` [Example 12, N-[(1S)-1-[(1R,2S,5S)-2-[[[(2R)-2-chloro-2-fluoro-acetyl]-[[(3S)-2-oxopyrrolidin-3-yl]methyl]amino]carbamoyl]-6,6-dimethyl-3-azabicyclo[3.1.0]hexane-3-carbonyl]-2,2-dimethyl-propyl]cyclopropanecarboxamide], the concentration for half-maximal inhibition (IC50) at HCoV-229E 3CLpro is 26 nM; against SARS-CoV 3CLpro, 17 nM; against SARS-CoV-2 3CLpro, 15 nM; against MERS-CoV 3CLpro, 106 nM.

Regarding `CC(C)C(=O)N[C@H](C(=O)N1C[C@H]2[C@@H]([C@H]1C(=O)NN(C[C@@H]1CCNC1=O)C(=O)[C@H](F)Cl)C2(C)C)C(C)(C)C` [Example 13, N-[(1S)-1-[(1R,2S,5S)-2-[[[(2R)-2-chloro-2-fluoro-acetyl]-[[(3S)-2-oxopyrrolidin-3-yl]methyl]amino]carbamoyl]-6,6-dimethyl-3-azabicyclo[3.1.0]hexane-3-carbonyl]-2,2-dimethyl-propyl]-2-methyl-propanamide], the IC50 on HCoV-229E 3CLpro amounted to 24 nM; against SARS-CoV 3CLpro, 14 nM; against SARS-CoV-2 3CLpro it was 9 nM; against MERS-CoV 3CLpro it was 94 nM.
